Data: patent publication US8975232B2, “Macrocyclic kinase inhibitors and uses thereof” (President and Fellows of Harvard College, priority 2010, dated 2015)
Read-outs that look alike come from different tables or passages of the source.

What was measured:
DYRK3 = DYRK3 (Homo sapiens, UniProt O43781); experiment: SelectScreen kinase profiling; format: biochemical; settings: 5 μM
Description: (§1) Src IC50 determinations and single-point inhibition measurements were performed using Invitrogen's Z′-LYTE Tyr 02 assay kit according to the manufacturer's protocols. All kinase assays were performed at ATP concentrations near KM,ATP values, except where noted otherwise. Active human Src kinase was obtained from Millipore. For kinome profiling and IC50 determinations against non-Src kinases, compounds were submitted to Invitrogen's SelectScreen Kinase Profiling Service.

FLT3 = FLT3 (Homo sapiens, UniProt P36888); experiment: SelectScreen kinase profiling; format: biochemical; settings: 5 μM
Description: as §1

FRK (PTK5) = FRK (PTK5) (Homo sapiens, UniProt P42685); experiment: SelectScreen kinase profiling; format: biochemical; settings: 5 μM
Sequence of FRK (PTK5) (P42685 whole entry): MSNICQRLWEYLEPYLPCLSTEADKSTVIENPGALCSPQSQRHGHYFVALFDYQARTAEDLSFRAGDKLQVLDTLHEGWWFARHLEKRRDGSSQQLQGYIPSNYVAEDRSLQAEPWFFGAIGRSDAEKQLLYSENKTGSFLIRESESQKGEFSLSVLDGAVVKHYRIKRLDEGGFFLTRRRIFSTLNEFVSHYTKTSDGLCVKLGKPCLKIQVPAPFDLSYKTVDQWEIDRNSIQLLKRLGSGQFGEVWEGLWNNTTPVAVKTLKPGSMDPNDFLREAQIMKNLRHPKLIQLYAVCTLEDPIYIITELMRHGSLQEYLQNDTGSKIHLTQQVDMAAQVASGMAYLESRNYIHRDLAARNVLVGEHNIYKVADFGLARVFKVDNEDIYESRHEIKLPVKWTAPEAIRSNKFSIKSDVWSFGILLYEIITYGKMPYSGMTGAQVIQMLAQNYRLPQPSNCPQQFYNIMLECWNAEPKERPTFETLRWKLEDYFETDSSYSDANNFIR
Description: as §1

GSK3B (GSK3 beta) = GSK3B (GSK3 beta) (Homo sapiens, UniProt P49841); experiment: SelectScreen kinase profiling; format: biochemical; settings: 5 μM
Description: as §1

IGF1R = IGF1R (Homo sapiens, UniProt P08069); experiment: SelectScreen kinase profiling; format: biochemical; settings: 5 μM
Description: as §1

MAP2K1 (MEK1) = MAP2K1 (MEK1) (Homo sapiens, UniProt Q02750); experiment: SelectScreen kinase profiling; format: biochemical; settings: 5 μM
Sequence of MAP2K1 (MEK1) (Q02750 whole entry): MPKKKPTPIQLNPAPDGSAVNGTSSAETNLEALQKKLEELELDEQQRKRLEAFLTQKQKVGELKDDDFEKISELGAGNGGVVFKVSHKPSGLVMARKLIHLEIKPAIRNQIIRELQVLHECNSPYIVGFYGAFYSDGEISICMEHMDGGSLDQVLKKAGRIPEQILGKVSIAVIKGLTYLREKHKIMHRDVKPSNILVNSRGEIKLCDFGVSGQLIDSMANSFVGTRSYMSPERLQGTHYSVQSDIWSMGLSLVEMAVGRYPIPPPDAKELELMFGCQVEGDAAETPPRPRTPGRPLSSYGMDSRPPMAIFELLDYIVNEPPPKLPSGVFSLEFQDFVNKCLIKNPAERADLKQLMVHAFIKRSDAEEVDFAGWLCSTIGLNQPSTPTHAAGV
Description: as §1

MAPK1 (ERK2) = MAPK1 (ERK2) (Homo sapiens, UniProt P28482); experiment: SelectScreen kinase profiling; format: biochemical; settings: 5 μM
Sequence of MAPK1 (ERK2) (P28482 whole entry): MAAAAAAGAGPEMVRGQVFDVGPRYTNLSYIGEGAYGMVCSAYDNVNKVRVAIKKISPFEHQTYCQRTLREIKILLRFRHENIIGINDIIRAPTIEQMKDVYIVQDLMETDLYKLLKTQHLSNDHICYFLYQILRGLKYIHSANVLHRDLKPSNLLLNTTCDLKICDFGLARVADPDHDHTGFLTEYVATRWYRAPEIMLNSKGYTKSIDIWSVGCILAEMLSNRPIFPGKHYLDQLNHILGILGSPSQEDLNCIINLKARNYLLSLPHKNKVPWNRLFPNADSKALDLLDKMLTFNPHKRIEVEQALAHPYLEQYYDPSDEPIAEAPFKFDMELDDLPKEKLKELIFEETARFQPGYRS
Description: as §1

MARK2 = MARK2 (Homo sapiens, UniProt Q7KZI7); experiment: SelectScreen kinase profiling; format: biochemical; settings: 5 μM
Sequence of MARK2 (Q7KZI7 whole entry): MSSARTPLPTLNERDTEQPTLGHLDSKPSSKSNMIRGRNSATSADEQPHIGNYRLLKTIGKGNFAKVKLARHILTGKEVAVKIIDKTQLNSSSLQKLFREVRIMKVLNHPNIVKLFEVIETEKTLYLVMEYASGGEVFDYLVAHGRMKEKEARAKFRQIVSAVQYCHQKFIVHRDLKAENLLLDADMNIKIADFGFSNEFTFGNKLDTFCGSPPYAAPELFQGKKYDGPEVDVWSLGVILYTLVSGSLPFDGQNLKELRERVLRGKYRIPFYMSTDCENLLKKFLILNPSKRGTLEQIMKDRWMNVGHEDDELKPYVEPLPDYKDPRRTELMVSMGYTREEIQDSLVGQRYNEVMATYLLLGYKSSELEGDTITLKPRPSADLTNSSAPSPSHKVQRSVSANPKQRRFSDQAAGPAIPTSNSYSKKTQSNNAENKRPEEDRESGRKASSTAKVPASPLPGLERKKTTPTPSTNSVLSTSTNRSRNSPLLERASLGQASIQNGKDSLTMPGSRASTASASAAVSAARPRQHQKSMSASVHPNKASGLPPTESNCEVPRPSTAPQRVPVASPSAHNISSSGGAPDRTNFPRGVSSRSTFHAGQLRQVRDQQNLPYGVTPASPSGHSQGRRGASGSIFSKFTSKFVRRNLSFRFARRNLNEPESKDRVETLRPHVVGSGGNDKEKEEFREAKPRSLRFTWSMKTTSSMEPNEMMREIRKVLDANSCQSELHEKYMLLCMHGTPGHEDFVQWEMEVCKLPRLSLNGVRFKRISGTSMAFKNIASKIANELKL
Description: as §1

MET (cMet) = MET (cMet) (Homo sapiens, UniProt P08581); experiment: SelectScreen kinase profiling; format: biochemical; settings: 5 μM
Sequence of MET (cMet) (P08581 25-1390): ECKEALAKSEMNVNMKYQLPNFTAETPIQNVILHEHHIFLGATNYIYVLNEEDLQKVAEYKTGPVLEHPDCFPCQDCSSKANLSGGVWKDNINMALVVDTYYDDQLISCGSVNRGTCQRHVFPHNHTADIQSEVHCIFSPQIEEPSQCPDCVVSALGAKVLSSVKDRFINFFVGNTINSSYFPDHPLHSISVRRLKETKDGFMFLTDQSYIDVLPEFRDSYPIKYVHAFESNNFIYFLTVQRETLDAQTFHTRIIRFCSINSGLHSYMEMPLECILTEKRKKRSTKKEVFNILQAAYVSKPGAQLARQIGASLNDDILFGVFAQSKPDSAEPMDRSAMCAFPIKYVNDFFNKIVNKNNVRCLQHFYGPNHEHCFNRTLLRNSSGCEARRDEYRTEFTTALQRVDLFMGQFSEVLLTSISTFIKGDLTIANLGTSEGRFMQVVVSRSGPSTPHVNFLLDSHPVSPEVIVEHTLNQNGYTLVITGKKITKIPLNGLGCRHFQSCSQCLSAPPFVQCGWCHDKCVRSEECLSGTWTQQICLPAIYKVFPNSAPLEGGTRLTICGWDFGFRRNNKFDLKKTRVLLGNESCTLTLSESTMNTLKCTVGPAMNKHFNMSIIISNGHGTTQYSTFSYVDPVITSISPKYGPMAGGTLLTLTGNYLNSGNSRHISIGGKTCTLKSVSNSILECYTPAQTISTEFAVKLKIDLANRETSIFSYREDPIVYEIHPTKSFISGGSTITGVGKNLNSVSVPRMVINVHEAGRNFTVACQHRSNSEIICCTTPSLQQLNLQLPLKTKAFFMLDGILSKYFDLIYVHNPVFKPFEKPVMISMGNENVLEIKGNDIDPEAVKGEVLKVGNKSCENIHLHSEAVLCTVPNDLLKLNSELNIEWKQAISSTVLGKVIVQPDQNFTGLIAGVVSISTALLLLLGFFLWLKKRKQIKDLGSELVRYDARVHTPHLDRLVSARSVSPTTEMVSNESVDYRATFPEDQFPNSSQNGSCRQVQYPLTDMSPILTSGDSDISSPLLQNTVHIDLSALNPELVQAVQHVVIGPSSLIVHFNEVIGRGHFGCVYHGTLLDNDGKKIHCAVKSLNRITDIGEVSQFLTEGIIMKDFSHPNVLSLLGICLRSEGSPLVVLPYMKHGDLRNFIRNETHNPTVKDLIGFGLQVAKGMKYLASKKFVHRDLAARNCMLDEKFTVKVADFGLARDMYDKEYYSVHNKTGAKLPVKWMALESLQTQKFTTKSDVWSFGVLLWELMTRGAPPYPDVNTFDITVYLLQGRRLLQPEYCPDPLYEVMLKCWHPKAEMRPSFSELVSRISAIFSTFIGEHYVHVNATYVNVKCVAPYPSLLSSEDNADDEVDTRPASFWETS
Description: as §1

PRKACA (PKA) = PRKACA (PKA) (Homo sapiens, UniProt P17612); experiment: SelectScreen kinase profiling; format: biochemical; settings: 5 μM
Description: as §1

SYK = SYK (Homo sapiens, UniProt P43405); experiment: SelectScreen kinase profiling; format: biochemical; settings: 5 μM
Description: as §1

YES1 = YES1 (Homo sapiens, UniProt P07947); experiment: SelectScreen kinase profiling; format: biochemical; settings: 5 μM
Sequence of YES1 (P07947 whole entry): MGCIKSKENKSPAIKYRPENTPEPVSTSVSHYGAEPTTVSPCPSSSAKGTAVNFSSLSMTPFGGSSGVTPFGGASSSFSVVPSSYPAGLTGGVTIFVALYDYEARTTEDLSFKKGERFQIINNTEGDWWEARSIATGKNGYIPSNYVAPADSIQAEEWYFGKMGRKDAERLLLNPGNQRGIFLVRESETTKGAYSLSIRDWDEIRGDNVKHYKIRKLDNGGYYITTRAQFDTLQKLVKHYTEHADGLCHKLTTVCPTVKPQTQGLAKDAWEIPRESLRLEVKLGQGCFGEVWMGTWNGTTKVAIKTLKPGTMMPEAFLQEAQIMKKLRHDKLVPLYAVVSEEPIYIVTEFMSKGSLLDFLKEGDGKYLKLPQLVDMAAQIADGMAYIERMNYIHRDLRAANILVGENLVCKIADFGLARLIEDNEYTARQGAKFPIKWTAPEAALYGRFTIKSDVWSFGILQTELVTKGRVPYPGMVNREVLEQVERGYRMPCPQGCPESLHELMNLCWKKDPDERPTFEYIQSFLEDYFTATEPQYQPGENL
Description: as §1

Abl = target: T1, Abl (Homo sapiens, UniProt P00519); experiment: Continuous spectrophotometric kinase activity assay; format: biochemical
T1 construct: human c-Abl (residues 229-512); made in house
T1 sequence (P00519 229-512): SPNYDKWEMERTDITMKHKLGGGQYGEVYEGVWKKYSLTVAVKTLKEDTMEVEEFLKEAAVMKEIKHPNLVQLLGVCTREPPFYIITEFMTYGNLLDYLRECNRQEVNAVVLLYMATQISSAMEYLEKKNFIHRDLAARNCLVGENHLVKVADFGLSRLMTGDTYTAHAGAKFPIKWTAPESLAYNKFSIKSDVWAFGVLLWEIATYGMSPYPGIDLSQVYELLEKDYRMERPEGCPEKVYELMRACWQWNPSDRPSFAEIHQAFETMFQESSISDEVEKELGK

[1] = target: T2, Src kinase domain (chicken c-Src residues 251-533) (Gallus gallus, UniProt P00523); experiment: as above; format: biochemical; settings: Src kinase domain
T2 construct: chicken c-Src (residues 251-533 and residues 83-533); made in house

Src kinase domain = target: T3, Src kinase domain (Gallus gallus, UniProt P00523); experiment: Fluorescence anisotropy binding assay; design: species or system chicken; settings: fluorescein-labeled macrocycle, read-out: dissociation constant (KD)
T3 construct: chicken c-Src (residues 251-533 and residues 83-533); made in house
Description: The change in fluorescence anisotropy of fluorescein-labeled MC1, MC4 and MC9 at 518 nm upon excitation at 492 nm was monitored with a HORIBA Jobin Yvon FluoroMax-4 (Edison, N.J.) spectrofluorimeter. Kinase was titrated to 0.5 μM of the fluorescently labeled macrocycle in 100 mM Tris pH 8.0, 10 mM MgCl2 at 25° C. After equilibration, the increase in the fluorescence anisotropy of the fluorescently labeled ligand was recorded and fitted against a quadratic binding equation in Kaleidagraph (Synergy Software, Reading Pa.) to yield the dissociation constant KD.
To clarify the inhibitory mechanism of the compounds further, the binding affinity of fluorescently labeled MC1, MC4, and MC9 to Src kinase domain was determined in a fluorescence anisotropy assay (FIG. 21).

Src kinase = Src kinase (Homo sapiens, UniProt P12931); experiment: Z'-LYTE kinase assay (Invitrogen), Src; format: biochemical; design: full-length kinase in the Z-LYTE assay vs. kinase domain in the current study; purchased Millipore
Sequence of Src kinase (P12931 whole entry, the tested form may be a part): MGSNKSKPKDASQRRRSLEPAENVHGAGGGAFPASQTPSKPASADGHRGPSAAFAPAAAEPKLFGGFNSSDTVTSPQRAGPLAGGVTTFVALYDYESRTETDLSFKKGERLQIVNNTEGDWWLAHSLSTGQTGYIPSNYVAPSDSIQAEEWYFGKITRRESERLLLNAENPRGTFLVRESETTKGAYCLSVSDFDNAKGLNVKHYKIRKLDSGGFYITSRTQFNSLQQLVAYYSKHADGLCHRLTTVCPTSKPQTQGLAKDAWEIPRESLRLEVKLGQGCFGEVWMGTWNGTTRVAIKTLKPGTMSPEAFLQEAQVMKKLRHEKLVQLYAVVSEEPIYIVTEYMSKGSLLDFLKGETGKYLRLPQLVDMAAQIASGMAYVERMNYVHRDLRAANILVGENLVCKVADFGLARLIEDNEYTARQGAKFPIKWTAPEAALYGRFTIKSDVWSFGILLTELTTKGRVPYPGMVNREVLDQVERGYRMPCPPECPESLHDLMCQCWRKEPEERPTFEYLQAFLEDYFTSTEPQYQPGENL
Method in brief: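 Human Src activity measured by FRET-based Z′-LYTE Tyr 02 peptide assay at ATP near KM,ATP unless noted. IC50s and single-point inhibition determined over varying macrocycle concentrations. Non-Src kinases tested via a commercial profiling service.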

HCK = HCK (Homo sapiens, UniProt P08631); experiment: Continuous spectrophotometric kinase activity assay; format: biochemical; design: Kinase domain constructs of human c-Abl (residues 229-512), chicken c-Src (residues 251-533 and residues 83-533), murine Lck (residues 227-509), and human Hck (residues 166-445); made in house
Sequence of HCK (P08631 262-515 limits assumed): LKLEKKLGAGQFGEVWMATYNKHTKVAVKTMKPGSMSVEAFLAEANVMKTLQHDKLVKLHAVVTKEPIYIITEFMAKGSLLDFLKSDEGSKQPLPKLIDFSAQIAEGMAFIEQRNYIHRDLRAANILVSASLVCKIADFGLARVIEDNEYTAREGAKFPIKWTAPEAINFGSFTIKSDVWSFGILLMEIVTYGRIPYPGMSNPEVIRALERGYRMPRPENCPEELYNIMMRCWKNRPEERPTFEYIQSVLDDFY

[2] = 5 μM ATP, 100 μM Src optimal peptide
[3] = 5 μM ATP, 300 μM Src optimal peptide
[4] = 250 μM ATP, 300 μM Src optimal peptide

## NC(=O)[C@@H]1CCCNC(=O)[C@H](Cc2ccc([N+](=O)[O-])cc2)NC(=O)[C@H](Cc2ccco2)NC(=O)[C@H](CC2CC2)NC(=O)/C=C/C(=O)N1 [trans-A10-B1-C5-D6]
DYRK3
  % inhibition: 4%
FLT3
  % inhibition: 7%
FRK (PTK5)
  % inhibition: 15%
GSK3B (GSK3 beta)
  % inhibition: −6%
IGF1R
  % inhibition: 9%
MAP2K1 (MEK1)
  % inhibition: −6%
MAPK1 (ERK2)
  % inhibition: −3%
MARK2
  % inhibition: 1%
MET (cMet)
  % inhibition: −8%
PRKACA (PKA)
  % inhibition: −1%
SYK
  % inhibition: −1%
YES1
  % inhibition: 19%
Abl; [2]
  IC50: > 100 µM
Abl; [3]
  IC50: > 100 µM
Abl; [4]
  IC50: > 100 µM
[1]; [2]
  IC50: 11 µM
[1]; [4]
  IC50: 21 µM
Src kinase domain; 250 μM AMP-PNP
  Kd: 1.7 µM
Src kinase domain; no competitor
  Kd: 0.3 µM
Src kinase; SRC, 5 μM, data from FIG. 8 and Table 6
  % inhibition: 86%
Src kinase; apparent KM for ATP versus macrocycle concentration
  mode of Src inhibition: ATP-competitive
HCK; [2]
  IC50: > 100 µM
HCK; [3]
  IC50: > 100 µM
HCK; [4]
  IC50: > 100 µM
